Data on seven molecules can be found in PMC11676910, “Manganese(II) Complexes with Non-Steroidal Anti-Inflammatory Drugs: Structure and Biological Activity” (International Journal of Molecular Sciences, 2024).

Where two headings read alike, the source gives them in different places.

In data set [1] the test system is EB–DNA adduct (CT DNA). The note with it: cited from earlier work.
The test system of data set [2] is CT DNA. Particulars: cited from earlier work.
On the set-up of data set [3]: concentration or dose not given beside the values. The note with it: free NSAID; cited from earlier work.
For data set [4], the target named is T1, bovine serum albumin (BSA) (Bos taurus, UniProt P02769). Set-up: purchased Sigma–Aldrich Co. The note with it: cited from earlier work.
The target of data set [5] is T2, human serum albumin (HSA) (Homo sapiens, UniProt P02768). Further details: purchased Sigma–Aldrich Co. The note with it: cited from earlier work.
A short description of data set [6]: ABTS radical scavenging assay. Particulars: compound 0.1 mM in DMSO; absorbance at 734 nm 1 min after mixing.
For data set [7], the system named is EB–DNA adduct (CT DNA). The experiment in a line: EB displacement from EB–DNA adduct by fluorescence emission spectroscopy. It is filed as binding, calf.
Data set [8] has as its target T2, human serum albumin (HSA).
Data set [9] in a line: Solubility of the complexes. It counts as physicochemical.
The target of data set [10] is T1, bovine serum albumin (BSA). As to the kind of experiment: BSA tryptophan fluorescence quenching.
Data set [11] deals with CT DNA. The experiment in a line: CT DNA binding by UV-vis spectroscopy titration. Further details: species or system calf. Particulars: on addition of CT DNA.

T1 sequence (P02769 25-607): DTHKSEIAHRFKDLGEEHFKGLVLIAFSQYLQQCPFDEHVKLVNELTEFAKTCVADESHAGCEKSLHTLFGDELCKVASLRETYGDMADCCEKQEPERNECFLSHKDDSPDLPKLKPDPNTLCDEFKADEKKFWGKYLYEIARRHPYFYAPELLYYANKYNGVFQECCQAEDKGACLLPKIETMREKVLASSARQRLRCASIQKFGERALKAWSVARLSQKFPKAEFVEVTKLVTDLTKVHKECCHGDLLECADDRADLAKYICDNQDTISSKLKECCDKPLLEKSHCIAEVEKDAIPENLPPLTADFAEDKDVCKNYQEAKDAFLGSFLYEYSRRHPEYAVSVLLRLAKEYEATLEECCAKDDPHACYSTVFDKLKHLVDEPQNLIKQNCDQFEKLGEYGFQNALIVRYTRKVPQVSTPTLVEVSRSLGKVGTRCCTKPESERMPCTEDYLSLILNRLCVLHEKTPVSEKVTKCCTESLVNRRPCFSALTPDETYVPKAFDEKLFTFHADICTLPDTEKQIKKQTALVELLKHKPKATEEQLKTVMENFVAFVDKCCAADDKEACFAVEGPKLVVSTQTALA
T2 sequence (P02768 25-609): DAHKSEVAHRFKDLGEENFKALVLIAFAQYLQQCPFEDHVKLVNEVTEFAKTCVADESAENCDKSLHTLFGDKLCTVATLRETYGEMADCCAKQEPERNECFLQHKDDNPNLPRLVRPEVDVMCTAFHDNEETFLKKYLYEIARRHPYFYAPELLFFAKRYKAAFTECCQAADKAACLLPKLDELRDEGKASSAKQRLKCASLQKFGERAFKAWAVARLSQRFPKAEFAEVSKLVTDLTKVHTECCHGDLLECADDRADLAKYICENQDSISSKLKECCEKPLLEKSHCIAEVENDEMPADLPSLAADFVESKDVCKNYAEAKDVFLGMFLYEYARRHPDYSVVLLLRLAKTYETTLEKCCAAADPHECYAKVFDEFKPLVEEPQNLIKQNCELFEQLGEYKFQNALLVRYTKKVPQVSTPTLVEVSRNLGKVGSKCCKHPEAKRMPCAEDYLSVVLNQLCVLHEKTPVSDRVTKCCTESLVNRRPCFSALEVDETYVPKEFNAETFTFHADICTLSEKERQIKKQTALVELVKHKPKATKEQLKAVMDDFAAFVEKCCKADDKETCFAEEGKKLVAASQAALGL

For `O=C(O)c1cc(-c2ccc(F)cc2F)ccc1O` [Complex H2difl, diflunisal], in the data set on EB–DNA adduct (CT DNA) [1], the “EB–DNA fluorescence quenching ΔI/Io (%)” value is reported as 65.0%, the “Stern–Volmer constant KSV (EB–DNA)” value is on record as 8.59 (±0.35) × 10^5 M^–1 and the “quenching constant kq of the EB–DNA fluorescence” value is 3.73 (±0.15) × 10^13 M^–1s^–1. For the same molecule, the “ΔA/A0 (%) hyper-/hypo-chromism of UV band” value in the data set with CT DNA [2] (first band listed in the cell) is reported as “+15%”. For the same molecule, in data set [3], the “% ABTS radical scavenging activity (ABTS%)” value is listed as 76.58 ± 0.74%.

In the case of `O=C(O)c1ccccc1Nc1cccc(C(F)(F)F)c1` [Hfluf, flufenamic acid], in data set [4], the “BSA binding constant Κ(BSA)” value is given as 1.06 (±0.04) × 10^6 M^–1 and the “BSA quenching constant kq(BSA)” value is listed as 1.83 (±0.20) × 10^13 M^–1s^–1. In [5], the “HSA binding constant Κ(HSA)” value is recorded as 1.79 (±0.17) × 10^5 M^–1 and the “HSA quenching constant kq(HSA)” value was 1.86 (±0.21) × 10^12 M^–1s^–1. Also, in the data set with EB–DNA adduct (CT DNA) [1], the “EB–DNA fluorescence quenching ΔI/Io (%)” value was 67.0%, the “Stern–Volmer constant KSV (EB–DNA)” value is listed as 6.34 (±0.30) × 10^5 M^–1 and the “quenching constant kq of the EB–DNA fluorescence” value is on record as 2.76 (±0.13) × 10^13 M^–1s^–1. Further, in the data set on CT DNA [2] (first band listed in the cell), the “ΔA/A0 (%) hyper-/hypo-chromism of UV band” value is “+40%” and the “Δλ (nm) shift of λmax” value is “+10 nm”. In the data set on CT DNA [2] (second band listed in the cell), the “ΔA/A0 (%) hyper-/hypo-chromism of UV band” value is on record as less than −50% and the “Δλ (nm) shift of λmax” value was 0 nm. Also, the “% ABTS radical scavenging activity (ABTS%)” value in data set [3] is 64.57 ± 0.43%.

In the case of `Cc1cccc(Nc2ccccc2C(=O)O)c1C` [Hmef, mefenamic acid], in data set [4], the “BSA binding constant Κ(BSA)” value is given as 1.35 (±0.22) × 10^5 M^–1 and the “BSA quenching constant kq(BSA)” value is listed as 2.78 (±0.20) × 10^13 M^–1s^–1. In [5], the “HSA binding constant Κ(HSA)” value was 1.32 (±0.15) × 10^5 M^–1 and the “HSA quenching constant kq(HSA)” value was 7.13 (±0.34) × 10^12 M^–1s^–1. In the data set with EB–DNA adduct (CT DNA) [1], the “EB–DNA fluorescence quenching ΔI/Io (%)” value was 80.0%, the “Stern–Volmer constant KSV (EB–DNA)” value is 1.58 (±0.06) × 10^5 M^–1 and the “quenching constant kq of the EB–DNA fluorescence” value is reported as 6.87 (±0.26) × 10^12 M^–1s^–1. Besides, in the data set on CT DNA [2] (first band listed in the cell), the “ΔA/A0 (%) hyper-/hypo-chromism of UV band” value was “+10%” and the “Δλ (nm) shift of λmax” value is 0 nm. Also, the “% ABTS radical scavenging activity (ABTS%)” value in data set [3] was 66.32 ± 0.38%.

For `Cc1c(Cl)cccc1Nc1ccccc1C(=O)O` [Htolf, tolfenamic acid], in [4], the “BSA binding constant Κ(BSA)” value is reported as 1.60 (±0.14) × 10^5 M^–1 and the “BSA quenching constant kq(BSA)” value was 2.18 (±0.12) × 10^13 M^–1s^–1. In [5], the “HSA binding constant Κ(HSA)” value is on record as 3.12 (±0.25) × 10^5 M^–1 and the “HSA quenching constant kq(HSA)” value is listed as 6.10 (±0.38) × 10^12 M^–1s^–1. Besides, in the data set with EB–DNA adduct (CT DNA) [1], the “EB–DNA fluorescence quenching ΔI/Io (%)” value was 74.0%, the “Stern–Volmer constant KSV (EB–DNA)” value was 1.15 (±0.04) × 10^6 M^–1 and the “quenching constant kq of the EB–DNA fluorescence” value is on record as 5.00 (±0.17) × 10^13 M^–1s^–1. In addition, in the data set with CT DNA [2] (first band listed in the cell), the “ΔA/A0 (%) hyper-/hypo-chromism of UV band” value was “+40%” and the “Δλ (nm) shift of λmax” value was “+5 nm”. In the data set on CT DNA [2] (second band listed in the cell), the “ΔA/A0 (%) hyper-/hypo-chromism of UV band” value is given as less than −50% and the “Δλ (nm) shift of λmax” value is recorded as −2 nm. Moreover, the “% ABTS radical scavenging activity (ABTS%)” value in data set [3] is 59.43 ± 0.33%.

As for `O=C(O)Cc1ccccc1Nc1c(Cl)cccc1Cl` [Na dicl, sodium diclofenac], in the data set with EB–DNA adduct (CT DNA) [1], the “EB–DNA fluorescence quenching ΔI/Io (%)” value was 65.0%, the “Stern–Volmer constant KSV (EB–DNA)” value is reported as 2.47 (±0.06) × 10^5 M^–1 and the “quenching constant kq of the EB–DNA fluorescence” value is recorded as 1.07 (±0.03) × 10^13 M^–1s^–1. For the same molecule, the “ΔA/A0 (%) hyper-/hypo-chromism of UV band” value with CT DNA [2] (first band listed in the cell) is reported as −7.5%. Further, the “% ABTS radical scavenging activity (ABTS%)” value in data set [3] was 76.35 ± 0.75%.

On to `Cc1ccc(Cl)c(Nc2ccccc2C(=O)O)c1Cl` [Na meclf, sodium meclofenamate], for which, in data set [4], the “BSA binding constant Κ(BSA)” value is recorded as 1.78 (±0.11) × 10^6 M^–1 and the “BSA quenching constant kq(BSA)” value is on record as 4.84 (±0.32) × 10^13 M^–1s^–1. Also, in data set [5], the “HSA binding constant Κ(HSA)” value is 1.05 (±0.03) × 10^6 M^–1 and the “HSA quenching constant kq(HSA)” value is given as 2.98 (±0.31) × 10^13 M^–1s^–1. Besides, in the data set on EB–DNA adduct (CT DNA) [1], the “EB–DNA fluorescence quenching ΔI/Io (%)” value is reported as 80.1%, the “Stern–Volmer constant KSV (EB–DNA)” value was 8.20 (±0.26) × 10^4 M^–1 and the “quenching constant kq of the EB–DNA fluorescence” value is 3.57 (±0.11) × 10^12 M^–1s^–1. For the same molecule, in the data set on CT DNA [2] (first band listed in the cell), the “ΔA/A0 (%) hyper-/hypo-chromism of UV band” value was −12% and the “Δλ (nm) shift of λmax” value was −1 nm. In addition, in the data set on CT DNA [2] (second band listed in the cell), the “ΔA/A0 (%) hyper-/hypo-chromism of UV band” value was “+5%” and the “Δλ (nm) shift of λmax” value was −2 nm. For the same molecule, the “% ABTS radical scavenging activity (ABTS%)” value in [3] is 59.48 ± 0.06%.

“[Μn(mef–O,O’)2(neoc)]∙1.5MeOH∙0.25 H2O [Complex 6]”: the “% ABTS radical scavenging activity (ABTS%)” value in data set [6] turned out to be 98.69 ± 0.07%. Besides, the “Stern–Volmer constant KSV (EB–DNA)” value in the data set on EB–DNA adduct (CT DNA) [7] ([EB] = 40 μM, [DNA] = 45 μM) is recorded as 4.29 (±0.32) × 10^5 M^–1. Besides, in the data set with EB–DNA adduct (CT DNA) [7] ([EB] = 40 μM, [DNA] = 45 μM, λexcitation 540 nm), the “EB–DNA fluorescence quenching ΔI/Io (%)” value amounted to 60.6%. In addition, the “relative EB–DNA fluorescence intensity (I/Io, %) remaining” value in the data set on EB–DNA adduct (CT DNA) [7] (λemission = 592 nm, lowest value reached, % of the initial EB–DNA fluorescence) was 39.4%. In the data set with EB–DNA adduct (CT DNA) [7] (τo = 23 ns), the “quenching constant kq of the EB–DNA fluorescence” value is 1.86 (±0.18) × 10^13 M^–1s^–1. The “HSA binding constant Κ(HSA)” value in data set [8] (Scatchard equation, HSA 3 μM) was 9.48 (±0.35) × 10^5 M^–1. Moreover, in [8] (λem,max = 340 nm, lowest value reached, % of the initial HSA fluorescence), the “relative HSA fluorescence emission intensity (I/Io %) remaining” value is listed as 5.6%. Also, the solubility result in data set [9] is “soluble in DMSO”. Moreover, in data set [10], the “BSA quenching constant kq(BSA)” value is 1.87 (±0.04) × 10^14 M^–1s^–1. The “BSA binding constant Κ(BSA)” value in data set [10] (Scatchard equation, BSA 3 μM) is given as 1.08 (±0.38) × 10^6 M^–1. In addition, the “relative BSA fluorescence emission intensity (I/Io, %) remaining” value in data set [10] (λem,max = 345 nm, lowest value reached, % of the initial BSA fluorescence) was 5.9%. Also, the “ΔA/A0 (%) hyper-/hypo-chromism of UV band” value in the data set with CT DNA [11] (first band listed in the cell, + hyperchromism, − hypochromism) is “+3%”; in the data set on CT DNA [11] (second band listed in the cell, <−50 = intense hypochromism), “+2%”. The “Δλ (nm) shift of λmax” value was 0 nm with CT DNA [11] (first band listed in the cell, + red shift, − blue shift) and −2 nm in the data set with CT DNA [11] (second band listed in the cell, elim = elimination).
